This passage reports IC50 results from patent US10501449B2 (priority 2018, dated 2019).

What is called IC50 is the concentration at which inhibition is half-maximal.

This experiment deals with hROMK (human Kir1.1) (Homo sapiens (Human), UniProt P48048). The experiment in a line: cell-based. The conditions noted are these: CHO T-Rex hROMK stable cell line; thallium flux; 10-point concentration response curve; read-out: Human ROMK Th Flux IC50.
Sequence of hROMK (human Kir1.1) (P48048 whole entry): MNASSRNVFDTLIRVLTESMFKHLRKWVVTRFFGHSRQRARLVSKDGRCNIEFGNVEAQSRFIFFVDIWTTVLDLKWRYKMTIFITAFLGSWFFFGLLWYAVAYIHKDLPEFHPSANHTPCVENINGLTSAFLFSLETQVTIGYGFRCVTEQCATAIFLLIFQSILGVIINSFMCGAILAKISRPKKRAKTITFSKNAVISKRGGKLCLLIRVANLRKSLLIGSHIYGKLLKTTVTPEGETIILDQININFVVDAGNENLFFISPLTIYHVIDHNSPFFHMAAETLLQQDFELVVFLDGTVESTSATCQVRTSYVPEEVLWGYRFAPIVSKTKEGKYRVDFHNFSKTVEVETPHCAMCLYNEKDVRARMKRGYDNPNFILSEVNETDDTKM
On to `Cc1cc(-c2nc(CN3CC[C@@H](O)[C@H](c4ccc5c(c4C)COC5=O)C3)co2)ncc1C#N` [Example 132-I, 6-(4-(((3R,4R)-4-hydroxy-3-(4-methyl-1-oxo-1,3-dihydroisobenzofuran-5-yl)piperidin-1-y)methyl)oxazol-2-yl)-4-methylnicotinonitrile], for which the half-inhibitory concentration (IC50) was found to be 170 nM.
With `Cc1c([C@@H]2CN(Cc3cnn(-c4ccc5oc(=O)n(C)c5c4C)c3)CCN2)ccc2c1COC2=O` [Example 135-I, (R)-3,4-dimethyl-5-(4-((3-(4-methyl-1-oxo-1,3-dihydroisobenzofuran-5-yl)piperazin-1-yl)methyl)-1H-pyrazol-1-yl)benzo[d]oxazol-2(3H)-one], the concentration for half-maximal inhibition (IC50) was found to be 170 nM.
In the case of `Cc1c([C@@H]2CN(Cc3ccc(-n4cc(C(N)=O)cn4)nc3)CCN2)ccc2c1COC2=O` [Example 138-I, (R)-1-(5-((3-(4-methyl-1-oxo-1,3-dihydroisobenzofuran-5-yl)piperazin-1-yl)methyl)pyridin-2-yl)-1H-pyrazole-4-carboxamide], the IC50 stood at 670 nM.
As for `Cc1cn(-c2cc(C(F)(F)F)c(CN3CCN[C@H](c4ccc5c(c4C)COC5=O)C3)cn2)cn1` [Example 147-I, (R)-4-methyl-5-(4-((6-(4-methyl-1H-imidazol-1-yl)-4-(trifluoromethyl)pyridin-3-yl)methyl)piperazin-2-yl)isobenzofurna-1(3H)-one], the IC50 was found to be 87 nM.
As to `Cc1cc(N2CCOC2=O)cc(-n2cc(CN3C[C@@H](c4ccc5c(c4C)COC5=O)N[C@@H](C)C3)cn2)c1` [Example 152-I, 3-(3-methyl-5-(4-(((3S,5R)-3-methyl-5-(4-methyl-1-oxo-1,3-dihydroisobenzofuran-5-yl)piperazin-1-yl)methyl)-1H-pyrazol-1-yl)phenyl)oxazolidin-2-one], the IC50 worked out at 490 nM.
The result for `Cc1c([C@@H]2CN(Cc3cnn(-c4ccc(S(C)(=O)=O)cn4)c3)C[C@H](C)N2)ccc2c1COC2=O` [Example 161-I, 4-methyl-5-((2R,6S)-6-methyl-4-((1-(5-(methylsulfonyl)pyridin-2-yl)-1H-pyrazol-4-yl)methyl)piperazin-2-yl)isobenzofuran-1(3H)-one] reads 170 nM; that for `COc1cc(-n2cnc(CN3CC[C@@H](O)[C@H](c4ccc5c(c4C)COC5=O)C3)c2)ccc1C#N` [Example 162-I, 4-(4-(((3R,4R)-4-hydroxy-3-(4-methyl-1-oxo-1,3-dihydroisobenzofuran-5-yl)piperidin-1-yl)methyl)-1H-imidazol-1-yl)-2-methoxybenzonitrile], 260 nM; that for `COc1cc(-n2cc(CN3C[C@@H](c4ccc5c(c4C)COC5=O)N[C@@H](C)C3)n(C(C)C)c2=O)ncc1C#N` [Example 172-I, 6-(3-isopropyl-4-(((3S,5R)-3-methyl-5-(4-methyl-1-oxo-1,3-dihydroisobenzofuran-5-yl)piperazin-1-yl)methyl)-2-oxo-2,3-dihydro-1H-imidazol-1-yl)-4-methoxynicotinonitrile], 160 nM.
For the compound `Cc1c([C@@H]2CN(Cc3ccc(-c4ccnc(N5CCOC5=O)c4)nc3)C[C@H](C)N2)ccc2c1COC2=O` [Example 174-I, 3-(5-(((3S,5R)-3-methyl-5-(4-methyl-1-oxo-1,3-dihydroisobenzofuran-5-yl)piperazin-1-yl)methyl)-[2,4′-bipyridin]-2′-yl)oxazolidin-2-one], the IC50 amounted to 220 nM.
The result for `Cc1cc(-n2nnc(CN3C[C@@H](c4ccc5c(c4C)COC5=O)N[C@@H](C)C3)c2C)ncc1C#N` [Example 176-I, 4-methyl-6-(5-methyl-4-(((3S,5R)-3-methyl-5-(4-methyl-1-oxo-1,3-dihydroisobenzofuran-5-yl)piperazin-1-yl)methyl)-1H-1,2,3-triazol-1-yl)nicotinonitrile] reads 120 nM.
Then `Cc1c([C@@H]2CN(Cc3cnn(-c4ccnc5c4ccn5C)c3)CCO2)ccc2c1COC2=O` [Example 177-I, (R)-4-methyl-5-(4-((1-(1-methyl-1H-pyrrolo[2,3-b]pyridin-4-yl)-1H-pyrazol-4-yl)methyl)morpholin-2-yl)isobenzofuran-1(3H)-one], with 500 nM; and `Cc1ccc(-n2cnc(CN3C[C@@H](c4ccc5c(c4C)COC5=O)N[C@@H](C)C3)c2)cc1` [Example 178-I, 4-methyl-5-((2R,6S)-6-methyl-4-((1-(p-tolyl)-1H-imidazol-4-yl)methyl)piperazin-2-yl)isobenzofuran-1(3h)-one], with 220 nM.
In the case of `Cc1cnccc1-n1cnc(CN2C[C@@H](c3ccc4c(c3C)COC4=O)N[C@@H](C)C2)c1` [Example 179-I, 4-methyl-5-((2R,6S)-6-methyl-4-((1-(3-methylpyridin-4-yl)-1H-imidazol-4-yl)methyl)piperazin-2-yl)isobenzofuran-1(3H)-one], the IC50 stood at 360 nM.
For the compound `Cc1ccc(-n2cnc(CN3C[C@@H](c4ccc5c(c4C)COC5=O)N[C@@H](C)C3)c2)cn1` [Example 180-I, 4-methyl-5-((2R,6S)-6-methyl-4-((1-(6-methylpyridin-3-yl)-1H-imidazol-4-yl)methyl)piperazin-2-yl)isobenzofuran-1(3H)-one], the IC50 came to 77 nM.
With `Cc1cc(-n2cnc(CN3C[C@@H](c4ccc5c(c4C)COC5=O)N[C@@H](C)C3)c2)cc(C)n1` [Example 181-I, 5-((2R,6S)-4-((1-(2,6-dimethylpyridin-4-yl)-1H-imidazol-4-yl)methyl)-6-methylpiperazin-2-yl)-4-methylisobenzofuran-1(3H)-one], the IC50 was 150 nM.
The result for `Cc1c([C@@H]2CN(Cc3cn(-c4ccc5c(c4)OC(F)(F)O5)cn3)C[C@H](C)N2)ccc2c1COC2=O` [Example 182-I, 5-((2R,6S)-4-((1-(2,2-difluorobenzo[d][1,3]dioxol-5-yl)-1H-imidazol-4-yl)methyl)-6-methylpiperazin-2-yl)-4-methylisobenzofuran-1(3H)-one] reads 260 nM; that for `Cc1cc(-c2cnc(CN3CCN[C@H](c4ccc5c(c4C)COC5=O)C3)nc2)ncc1C#N` [Example 183-I, (R)-4-methyl-6-(2-((3-(4-methyl-1-oxo-1,3-dihydroisobenzofuran-5-yl)piperazin-1-yl)methyl)pyrimidin-5-yl)nicotinonitrile], 180 nM; that for `Cc1cc(-n2cc(CN3CCN[C@H](c4ccc5c(c4C)COC5=O)C3)nn2)nc(C)c1C#N` [Example 186-I, (R)-2,4-dimethyl-6-(4-((3-(4-methyl-1-oxo-1,3-dihydroisobenzofuran-5-yl)piperazin-1-yl)methyl)-1H-1,2,3-triazol-1-yl)nicotinonitrile], 18 nM.
With `Cc1c([C@@H]2CN(Cc3cnc(-n4c(C)nnc4C)nc3)CCN2)ccc2c1COC2=O` [Example 201-I, (R)-5-(4-((2-(3,5-dimethyl-4H-1,2,4-triazol-4-yl)pyrimidn-5-yl)methyl)piperazin-2-yl)-4-methylisobenzofuran-1(3H)-one], the IC50 is 190 nM.
For the compound `Cc1c(C#N)ccnc1-n1cc(CN2C[C@@H](c3ccc4c(c3C)COC4=O)N[C@@H](C)C2)cn1` [Example 202-I, 3-methyl-2-(4-(((3S,5R)-3-methyl-5-(4-methyl-1-oxo-1,3-dihdyroisobenzofuran-5-yl)piperazin-1-yl)methyl)-1H-pyrazol-1-yl)isonicotinonitrile], the IC50 was found to be 140 nM.
